Source: patent US20130217723A1, “Pharmaceutical Composition Combining Tenatoprazole and an Anti-Inflammatory Agent” (priority 2002, published 2013)
Like-named read-outs stand apart in the source and are kept apart here.

Key:
[1] = patients under treatment; cited from earlier work
[2] = Phase I pharmacokinetic study of oral tenatoprazole, single dose and daily dose for 7 days; assay type: in vivo, human (Caucasian individuals); conditions: for half-life: human, plasma, oral, depending on the dose (10-80 mg), read-out: mean elimination half-lives
Description: The doses tested were 10, 20, 40 and 80 mg of tenatoprazole.
In this table, the abbreviations employed have the following meanings: • Cmax maximum concentration • Tmax time required to attain maximum concentration • T1/2 elimination half-life • AUC0-t area under the curve, between time 0 and the last measurable concentration.

| SMILES | percentage of minor disorders observed in patients: dyspeptic symptoms [1] | percentage of minor disorders observed in patients: gastric pain [1] | percentage of minor disorders observed in patients: nausea [1] | plasma half-life/pump regeneration time ratio ([2]; compared with other proton pump inhibitors) | half-life ([2]; after a single dose) | half-life ([2]; after administration for seven days) | Cmax, AUC0-t and AUC0-inf values versus dose ([2]; single or repeated administration, AUC0-inf calculated by extrapolation) |
| --- | --- | --- | --- | --- | --- | --- | --- |
| Cc1ccc(-c2cc(C(F)(F)F)nn2-c2ccc(S(N)(=O)=O)cc2)cc1 [celecoxib] | 4.8% | 4.8% | 2.4% | – | – | – | – |
| COc1ccc2[nH]c([S+]([O-])Cc3ncc(C)c(OC)c3C)nc2n1 (stereo not shown) [tenatoprazole, 5-methoxy-2-[[(4-methoxy-3,5-dimethyl-2-pyridyl)methyl]sulfinyl]imidazo[4,5-b]pyridine] | – | – | – | notably higher than that seen with other proton pump inhibitors | 5 to 6 h | 5 to 9.5 h | increased in a linear fashion |
